The target in one data set is T1, Legumain (Homo sapiens, UniProt Q99538).
T1 sequence (Q99538 whole entry): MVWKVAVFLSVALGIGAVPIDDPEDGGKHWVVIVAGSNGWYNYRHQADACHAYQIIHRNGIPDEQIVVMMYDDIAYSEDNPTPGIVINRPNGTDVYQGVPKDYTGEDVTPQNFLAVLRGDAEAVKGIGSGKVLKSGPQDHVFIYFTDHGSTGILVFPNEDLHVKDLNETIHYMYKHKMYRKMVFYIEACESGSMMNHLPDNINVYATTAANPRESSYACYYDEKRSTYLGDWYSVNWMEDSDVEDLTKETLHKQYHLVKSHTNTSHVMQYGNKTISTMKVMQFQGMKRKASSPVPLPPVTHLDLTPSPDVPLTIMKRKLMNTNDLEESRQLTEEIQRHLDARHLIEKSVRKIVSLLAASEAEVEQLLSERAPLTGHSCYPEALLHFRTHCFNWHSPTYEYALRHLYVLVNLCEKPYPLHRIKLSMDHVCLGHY
Nature of the data set: Inhibition of recombinant human legumain using Z-Ala-Ala-Asn-MCA as substrate preincubated with protein followed by substrate addition measured every 2 mins for 60 mins by microplate reader analysis.

Data set [1] can be described thus: Kinetic solubility of compound in pH 7.4 PBS buffer after 90 mins by plate reader analysis. Particulars: read-out: Kinetic_solubility. The class given is physicochemical.
A short description of data set [2]: Intrinsic clearance in mouse liver microsomes at 1 uM incubated for 50 mins by LC-MS/MS method in presence of NADPH. The class given is ADME. Particulars: read-out: CLH. Background: Liver microsomes are a subcellular fraction often used to study metabolism.
A short description of data set [3]: Intrinsic clearance in rat liver microsomes at 1 uM incubated for 50 mins by LC-MS/MS method in presence of NADPH. The class given is ADME. As to conditions: read-out: CLH.
The nature of data set [4]: Intrinsic clearance in rat hepatocytes assessed per 10^6 cells at 1 uM incubated at 37 degC for 50 mins by LC-MS/MS method […]. Particulars: read-out: CLH. The class given is ADME, cell-based, Hepatocyte.

SMILES strings stand for the structures. In brackets after ≈: the same amount, converted by molar mass.

Usually IC50 stands for the midpoint of a concentration-inhibition curve. As to `CCOc1cccc(-c2ccc(CN([C@@H](C)C(=O)N[C@H](C#N)CC(N)=O)S(C)(=O)=O)cc2)c1`, on Legumain, the IC50 stood at 586 nM.

With `CC(C)Oc1cccc(-c2ccc(CN([C@H](C)C(=O)N[C@H](C#N)CC(N)=O)S(C)(=O)=O)cc2)c1`, the concentration for half-maximal inhibition (IC50) on Legumain worked out at 5050 nM.

In the case of `C[C@@H](C(=O)N[C@H](C#N)CC(N)=O)N(Cc1ccc(-c2cccc(F)c2)cc1)S(C)(=O)=O`, the solubility kinetic at 1.5 h in data set [1] was 185 µM (≈ 82.6 µg/mL). Further, the microsomal CLint at 1 µM came out at 4 µL/min/mg in data set [2] and 19 µL/min/mg in data set [3]. For the same molecule, the half-maximal inhibitory concentration (IC50) at Legumain stood at 128 nM. In addition, the hepatocyte CLint at 1 µM in data set [4] is 45 µL/min/1e6 cells. Consider `C[C@H](C(=O)N[C@H](C#N)CC(N)=O)N(Cc1ccc(-c2cc(F)cc(F)c2)cc1)S(C)(=O)=O`, for which, on Legumain, the IC50 came out at 9250 nM. With `CCC[C@@H](C(=O)N[C@H](C#N)CC(N)=O)N(Cc1ccc(-c2cccc(F)c2)cc1)S(C)(=O)=O`, the IC50 at Legumain turned out to be 4380 nM. `C[C@@H](C(=O)N[C@H](C#N)CC(N)=O)N(Cc1ccc(-c2ccccc2F)cc1)S(C)(=O)=O`: the IC50 on Legumain came out at 356 nM.

On to `CC(C)Oc1cccc(-c2ccc(CN([C@@H](C)C(=O)N[C@H](C#N)CC(N)=O)S(C)(=O)=O)cc2)c1`, for which, at Legumain, the half-inhibitory concentration (IC50) stood at 882 nM. Same read-out and setting: then `CCS(=O)(=O)N(Cc1ccc(-c2cccc(F)c2F)cc1)[C@@H](C)C(=O)N[C@H](C#N)CC(N)=O`, with 1090 nM. As for `CCCS(=O)(=O)N(Cc1ccc(-c2cccc(F)c2F)cc1)[C@@H](C)C(=O)N[C@H](C#N)CC(N)=O`, the IC50 on Legumain came to 6740 nM.

For `C[C@@H](C(=O)N[C@H](C#N)CC(N)=O)N(Cc1ccc(-c2ccc(F)c(F)c2)cc1)S(C)(=O)=O`, on Legumain, the half-maximal inhibitory concentration (IC50) was found to be 252 nM. For `CC[C@@H](C(=O)N[C@H](C#N)CC(N)=O)N(Cc1ccc(-c2cccc(F)c2F)cc1)S(C)(=O)=O`, the IC50 at Legumain was 5850 nM. As to `C[C@@H](C(=O)N[C@H](C#N)CC(N)=O)N(Cc1ccc(-c2cc(F)cc(F)c2)cc1)S(C)(=O)=O`, the IC50 on Legumain came out at 1360 nM. In the case of `C[C@H](C(=O)N[C@H](C#N)CC(N)=O)N(Cc1ccc(-c2ccccc2F)cc1)S(C)(=O)=O`, on Legumain, the IC50 was above 10000 nM. Same read-out and setting: then `CCOc1cccc(-c2ccc(CN([C@H](C)C(=O)N[C@H](C#N)CC(N)=O)S(C)(=O)=O)cc2)c1`, with above 10000 nM.

For the molecule `C[C@@H](C(=O)N[C@H](C#N)CC(N)=O)N(Cc1ccc(-c2cccc(F)c2F)cc1)S(C)(=O)=O`, in data set [1], the solubility kinetic at 1.5 h turned out to be 181 µM (≈ 84.1 µg/mL). Moreover, the microsomal CLint at 1 µM in data set [2] came out at 3 µL/min/mg; in data set [3] it was 17 µL/min/mg. Moreover, the IC50 on Legumain is 323 nM. Also, the hepatocyte CLint at 1 µM in data set [4] was found to be 38 µL/min/1e6 cells. `COc1cccc(-c2ccc(CN([C@@H](C)C(=O)N[C@H](C#N)CC(N)=O)S(C)(=O)=O)cc2)c1`: the solubility kinetic at 1.5 h in data set [1] was 193 µM (≈ 88.5 µg/mL). Further, the microsomal CLint at 1 µM stood at 24 µL/min/mg in data set [2] and 38 µL/min/mg in data set [3]. On Legumain, the IC50 stood at 378 nM. Moreover, the hepatocyte CLint at 1 µM in data set [4] was determined as 69 µL/min/1e6 cells. For the molecule `C[C@H](C(=O)N[C@H](C#N)CC(N)=O)N(Cc1ccc(-c2cccc(F)c2F)cc1)S(C)(=O)=O`, at Legumain, the IC50 stood at 1460 nM. Same read-out and setting: in the case of `CC(C)CS(=O)(=O)N(Cc1ccc(-c2cccc(F)c2)cc1)[C@@H](C)C(=O)N[C@H](C#N)CC(N)=O` it was 2270 nM. `C[C@H](C(=O)N[C@H](C#N)CC(N)=O)N(Cc1ccc(-c2ccc(F)c(F)c2)cc1)S(C)(=O)=O`: the 50% inhibitory concentration (IC50) at Legumain came out at 6300 nM. `C[C@H](C(=O)N[C@H](C#N)CC(N)=O)N(Cc1ccc(-c2cccc(F)c2)cc1)S(C)(=O)=O`: the half-inhibitory concentration (IC50) at Legumain was 2260 nM. Regarding `COc1cccc(-c2ccc(CN([C@H](C)C(=O)N[C@H](C#N)CC(N)=O)S(C)(=O)=O)cc2)c1`, on Legumain, the IC50 is 5850 nM. For `CCC[C@@H](C(=O)N[C@H](C#N)CC(N)=O)N(Cc1ccc(-c2cccc(F)c2F)cc1)S(C)(=O)=O`, at Legumain, the IC50 was 7750 nM. On to `CC(C(=O)N[C@H](C#N)CC(N)=O)N(Cc1ccc(-c2cccc(Cl)c2)cc1)S(C)(=O)=O` (mixture of isomers), for which the IC50 at Legumain was found to be 425 nM.
